19 compounds from patent US20230077362A1 (CORTEVA AGRISCIENCE LLC, priority 2019, published 2023) can be followed below.

The test system of assay [1] is Beet Armyworm (Spodoptera exigua) ("BAW"), second instar larvae. The assay is described as follows: Bioassay on beet armyworm (BAW), 128-well diet tray assay. It is filed as in vivo. The settings on record: Spodoptera exigua, read-out: BAW (Biological Results, rating). Put shortly: (§1)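 Second-instar larvae on diet in 128-well trays, covered and held at 25° C, 14:10 light-dark, for five to seven days. Percent mortality scored per well and averaged over eight wells; activity reported as a rating category.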

Assay [2] concerns Cabbage Looper (Trichoplusia ni) ("CL"), second instar larvae. The assay is described as follows: Bioassay on cabbage looper (CL), 128-well diet tray assay. Format: in vivo. The settings on record: Trichoplusia ni, read-out: CL (Biological Results, rating). In outline: as §1

Regarding `Cc1ccc(C(C)C)c(N2C(=O)CS/C2=N\C(=O)Nc2ccc(-c3ncn(-c4ccc(OC(F)(F)F)cn4)n3)cc2C(F)(F)F)c1` [Compound J260, (Z)-1-(3-(2-Isopropyl-5-methylphenyl)-4-oxothiazolidin-2-ylidene)-3-(4-(1-(5-(trifluoromethoxy)pyridin-2-yl)-1H-1,2,4-triazol-3-yl)-2-(trifluoromethyl)phenyl)urea], the pest or weed control at 50 µg/cm2 in assay [1] and in assay [2] was 50 to 100% each time.
For the compound `CC(C)c1cc(F)c(N(C)C)cc1N1C(=O)CS/C1=N\C(=O)Nc1ccc(-c2ncn(-c3ccc(OC(F)(F)F)cn3)n2)cc1F` [Compound J261, (Z)-1-(3-(5-(Dimethylamino)-4-fluoro-2-isopropylphenyl)-4-oxothiazolidin-2-ylidene)-3-(2-fluoro-4-(1-(5-(trifluoromethoxy)pyridin-2-yl)-1H-1,2,4-triazol-3-yl)phenyl)urea], the pest or weed control at 50 µg/cm2 in assay [1] and in assay [2] was 50 to 100% in each case.
As for `CN(C)c1ccc(C(F)(F)F)c(N2C(=O)CS/C2=N\C(=O)Nc2ccc(-c3ncn(-c4ccc(OC(F)(F)F)cn4)n3)cc2F)c1` [Compound J262, (Z)-1-(3-(5-(Dimethylamino)-2-(trifluoromethyl)phenyl)-4-oxothiazolidin-2-ylidene)-3-(2-fluoro-4-(1-(5-(trifluoromethoxy)pyridin-2-yl)-1H-1,2,4-triazol-3-yl)phenyl)urea], the pest or weed control at 50 µg/cm2 in assay [1] and in assay [2] was 50 to 100% in each case.
As to `CN(C)c1ccc(OCC(F)(F)F)c(N2C(=O)CS/C2=N\C(=O)Nc2ccc(-c3ncn(-c4ccc(OC(F)(F)F)cn4)n3)cc2F)c1` [Compound J263, (Z)-1-(3-(5-(Dimethylamino)-2-(2,2,2-trifluoroethoxy)phenyl)-4-oxothiazolidin-2-ylidene)-3-(2-fluoro-4-(1-(5-(trifluoromethoxy)pyridin-2-yl)-1H-1,2,4-triazol-3-yl)phenyl)urea], the pest or weed control at 50 µg/cm2 in assay [1] and in assay [2] was 50 to 100% in each case.
For the compound `Cc1ccc(OCCC(F)(F)F)c(N2C(=O)CS/C2=N\C(=O)Nc2ccc(-c3ncn(-c4ccc(OC(F)(F)F)cn4)n3)cc2C#N)c1` [Compound J264, (Z)-1-(2-Cyano-4-(1-(5-(trifluoromethoxy)pyridin-2-yl)-1H-1,2,4-triazol-3-yl)phenyl)-3-(3-(5-methyl-2-(3,3,3-trifluoropropoxy)phenyl)-4-oxothiazolidin-2-ylidene)urea], the pest or weed control at 50 µg/cm2 in assay [1] and in assay [2] was 50 to 100% throughout.
As to `Cc1ccc(COCC(F)(F)F)c(N2C(=O)CS/C2=N\C(=O)Nc2ccc(-c3ncn(-c4ccc(OC(F)(F)F)cn4)n3)cc2C#N)c1` [Compound J265, (Z)-1-(2-Cyano-4-(1-(5-(trifluoromethoxy)pyridin-2-yl)-1H-1,2,4-triazol-3-yl)phenyl)-3-(3-(5-methyl-2-((2,2,2-trifluoroethoxy)methyl)phenyl)-4-oxothiazolidin-2-ylidene)urea], the pest or weed control at 50 µg/cm2 in assay [1] and in assay [2] was 50 to 100% in each case.
In the case of `CC(C)c1ccc(N(C)C)cc1N1C(=O)CS/C1=N\C(=O)Nc1ccc(-c2ncn(-c3ccc(OC(F)(F)F)cn3)n2)cc1C#N` [Compound J266, (Z)-1-(2-Cyano-4-(1-(5-(trifluoromethoxy)pyridin-2-yl)-1H-1,2,4-triazol-3-yl)phenyl)-3-(3-(5-(dimethylamino)-2-isopropylphenyl)-4-oxothiazolidin-2-ylidene)urea], the pest or weed control at 50 µg/cm2 in assay [1] and in assay [2] was 50 to 100% throughout.
`COC(C)c1ccc(C)cc1N1C(=O)CS/C1=N\C(=O)Nc1ccc(-c2ncn(-c3ccc(OC(F)(F)F)cn3)n2)cc1C#N` (centres unmarked) [Compound J267, (Z)-1-(2-Cyano-4-(1-(5-(trifluoromethoxy)pyridin-2-yl)-1H-1,2,4-triazol-3-yl)phenyl)-3-(3-(2-(1-methoxyethyl)-5-methylphenyl)-4-oxothiazolidin-2-ylidene)urea]: the pest or weed control at 50 µg/cm2 in assay [1] and in assay [2] was 50 to 100% in each case.
As for `COc1ccc(C(C)C)c(N2C(=O)CS/C2=N\C(=O)Nc2ccc(-c3ncn(-c4ccc(OC(F)(F)F)cn4)n3)cc2C#N)c1` [Compound J268, (Z)-1-(2-Cyano-4-(1-(5-(trifluoromethoxy)pyridin-2-yl)-1H-1,2,4-triazol-3-yl)phenyl)-3-(3-(2-isopropyl-5-methoxyphenyl)-4-oxothiazolidin-2-ylidene)urea], the pest or weed control at 50 µg/cm2 in assay [1] and in assay [2] was 50 to 100% each time.
As for `CCCc1ccc(N(C)C)cc1N1C(=O)CS/C1=N\C(=O)Nc1ccc(-c2ncn(-c3ccc(OC(F)(F)F)cn3)n2)cc1C#N` [Compound J269, (Z)-1-(2-Cyano-4-(1-(5-(trifluoromethoxy)pyridin-2-yl)-1H-1,2,4-triazol-3-yl)phenyl)-3-(3-(5-(dimethylamino)-2-propylphenyl)-4-oxothiazolidin-2-ylidene)urea], the pest or weed control at 50 µg/cm2 in assay [1] and in assay [2] was 50 to 100% each time.
For the compound `Cc1ccc(C(C)C)c(N2C(=O)CS/C2=N\C(=O)Nc2ccc(-c3ncn(-c4ccc(OC(F)(F)F)cn4)n3)cc2F)c1` [Compound J270, (Z)-1-(2-Fluoro-4-(1-(5-(trifluoromethoxy)pyridin-2-yl)-1H-1,2,4-triazol-3-yl)phenyl)-3-(3-(2-isopropyl-5-methylphenyl)-4-oxothiazolidin-2-ylidene)urea], the pest or weed control at 50 µg/cm2 in assay [1] and in assay [2] was 50 to 100% each time.
`Cc1ccc(C(F)(F)F)c(N2C(=O)CS/C2=N\C(=O)Nc2ccc(-c3ncn(-c4ccc(OC(F)(F)F)cn4)n3)cc2F)c1` [Compound J271, (Z)-1-(2-Fluoro-4-(1-(5-(trifluoromethoxy)pyridin-2-yl)-1H-1,2,4-triazol-3-yl)phenyl)-3-(3-(5-methyl-2-(trifluoromethyl)phenyl)-4-oxothiazolidin-2-ylidene)urea]: the pest or weed control at 50 µg/cm2 in assay [1] and in assay [2] was 50 to 100% each time.
On to `CCCc1ccc(C)cc1N1C(=O)CS/C1=N\C(=O)Nc1ccc(-c2ncn(-c3ccc(OC(F)(F)F)cn3)n2)cc1F` [Compound J272, (Z)-1-(2-Fluoro-4-(1-(5-(trifluoromethoxy)pyridin-2-yl)-1H-1,2,4-triazol-3-yl)phenyl)-3-(3-(5-methyl-2-propylphenyl)-4-oxothiazolidin-2-ylidene)urea], for which the pest or weed control at 50 µg/cm2 in assay [1] and in assay [2] was 50 to 100% each time.
With `Cc1ccc(OCCC(F)(F)F)c(N2C(=O)CS/C2=N\C(=O)Nc2ccc(-c3ncn(-c4ccc(OC(F)(F)F)cn4)n3)cc2C(F)(F)F)c1` [Compound J273, (Z)-1-(3-(5-Methyl-2-(3,3,3-trifluoropropoxy)phenyl)-4-oxothiazolidin-2-ylidene)-3-(4-(1-(5-(trifluoromethoxy)pyridin-2-yl)-1H-1,2,4-triazol-3-yl)-2-(trifluoromethyl)phenyl)urea], the pest or weed control at 50 µg/cm2 in assay [1] and in assay [2] was 50 to 100% throughout.
Regarding `Cc1ccc(COCC(F)(F)F)c(N2C(=O)CS/C2=N\C(=O)Nc2ccc(-c3ncn(-c4ccc(OC(F)(F)F)cn4)n3)cc2C(F)(F)F)c1` [Compound J274, (Z)-1-(3-(5-Methyl-2-((2,2,2-trifluoroethoxy)methyl)phenyl)-4-oxothiazolidin-2-ylidene)-3-(4-(1-(5-(trifluoromethoxy)pyridin-2-yl)-1H-1,2,4-triazol-3-yl)-2-(trifluoromethyl)phenyl)urea], the pest or weed control at 50 µg/cm2 in assay [1] and in assay [2] was 50 to 100% throughout.
Turning to `CC(C)c1ccc(N(C)C)cc1N1C(=O)CS/C1=N\C(=O)Nc1ccc(-c2ncn(-c3ccc(OC(F)(F)F)cn3)n2)cc1C(F)(F)F` [Compound J275, (Z)-1-(3-(5-(Dimethylamino)-2-isopropylphenyl)-4-oxothiazolidin-2-ylidene)-3-(4-(1-(5-(trifluoromethoxy)pyridin-2-yl)-1H-1,2,4-triazol-3-yl)-2-(trifluoromethyl)phenyl)urea], the pest or weed control at 50 µg/cm2 in assay [1] and in assay [2] was 50 to 100% each time.
With `COC(C)c1ccc(C)cc1N1C(=O)CS/C1=N\C(=O)Nc1ccc(-c2ncn(-c3ccc(OC(F)(F)F)cn3)n2)cc1C(F)(F)F` (centres unmarked) [Compound J276, (Z)-1-(3-(2-(1-Methoxyethyl)-5-methylphenyl)-4-oxothiazolidin-2-ylidene)-3-(4-(1-(5-(trifluoromethoxy)pyridin-2-yl)-1H-1,2,4-triazol-3-yl)-2-(trifluoromethyl)phenyl)urea], the pest or weed control at 50 µg/cm2 in assay [1] and in assay [2] was 50 to 100% each time.
For the compound `COc1ccc(C(C)C)c(N2C(=O)CS/C2=N\C(=O)Nc2ccc(-c3ncn(-c4ccc(OC(F)(F)F)cn4)n3)cc2C(F)(F)F)c1` [Compound J277, (Z)-1-(3-(2-Isopropyl-5-methoxyphenyl)-4-oxothiazolidin-2-ylidene)-3-(4-(1-(5-(trifluoromethoxy)pyridin-2-yl)-1H-1,2,4-triazol-3-yl)-2-(trifluoromethyl)phenyl)urea], the pest or weed control at 50 µg/cm2 in assay [1] and in assay [2] was 50 to 100% throughout.
As for `CCCc1ccc(N(C)C)cc1N1C(=O)CS/C1=N\C(=O)Nc1ccc(-c2ncn(-c3ccc(OC(F)(F)F)cn3)n2)cc1C(F)(F)F` [Compound J278, (Z)-1-(3-(5-(Dimethylamino)-2-propylphenyl)-4-oxothiazolidin-2-ylidene)-3-(4-(1-(5-(trifluoromethoxy)pyridin-2-yl)-1H-1,2,4-triazol-3-yl)-2-(trifluoromethyl)phenyl)urea], the pest or weed control at 50 µg/cm2 in assay [1] and in assay [2] was 50 to 100% in each case.
